{"source": "ChEMBL document CHEMBL4811221", "about": "“Diosgenin Derivatives as Potential Antitumor Agents: Synthesis, Cytotoxicity, and Mechanism of Action” (J Nat Prod, 2021)", "key": {"[1]": {"test_system": "A549", "test": "Cytotoxicity against human A549 cells assessed as cell growth inhibition measured after 24 hrs by MTT assay", "assay_type": "functional, cell-based", "settings": "A549, 24 h"}, "[2]": {"test_system": "MCF7", "test": "Cytotoxicity against human MCF7 cells assessed as cell growth inhibition measured after 24 hrs by MTT assay", "assay_type": "functional, cell-based", "settings": "MCF7, 24 h"}, "[3]": {"test_system": "HepG2", "test": "Cytotoxicity against human HepG2 cells assessed as cell growth inhibition measured after 24 hrs by MTT assay", "assay_type": "functional, cell-based", "settings": "HepG2, 24 h"}, "[4]": {"test_system": "L02", "test": "Cytotoxicity against human L02 cells assessed as cell growth inhibition measured after 24 hrs by MTT assay", "assay_type": "cell-based", "settings": "L02, 24 h"}, "[5]": {"test_system": "HepG2", "test": "Cell cycle arrest in human HepG2 cells assessed as accumulation at G0/G1 phase at 4 uM measured after 24 hrs by RNaseA/propidium iodide staining based flow cytometry (reference value: 49.3 %)", "assay_type": "functional"}, "[6]": {"test_system": "HepG2", "test": "Cell cycle arrest in human HepG2 cells assessed as accumulation at S phase at 4 uM measured after 24 hrs by RNaseA/propidium iodide staining based flow cytometry (reference value: 24.3 %)", "assay_type": "functional"}, "[7]": {"test_system": "HepG2", "test": "Cell cycle arrest in human HepG2 cells assessed as accumulation at G2/M phase at 4 uM measured after 24 hrs by RNaseA/propidium iodide staining based flow cytometry (reference value: 22.9 %)", "assay_type": "functional"}, "[8]": {"test_system": "HepG2", "test": "Cell cycle arrest in human HepG2 cells assessed as accumulation at G0/G1 phase at 8 uM measured after 24 hrs by RNaseA/propidium iodide staining based flow cytometry (reference value: 49.3 %)", "assay_type": "functional"}, "[9]": {"test_system": "HepG2", "test": "Cell cycle arrest in human HepG2 cells assessed as accumulation at S phase at 8 uM measured after 24 hrs by RNaseA/propidium iodide staining based flow cytometry (reference value: 24.3 %)", "assay_type": "functional"}, "[10]": {"test_system": "HepG2", "test": "Cell cycle arrest in human HepG2 cells assessed as accumulation at G2/M phase at 8 uM measured after 24 hrs by RNaseA/propidium iodide staining based flow cytometry (reference value: 22.9 %)", "assay_type": "functional"}, "[11]": {"test_system": "HepG2", "test": "Induction of apoptosis in human HepG2 cells assessed as discernible cell rounding at 4 to 8 uM by fluorescent microscopic analysis", "assay_type": "functional, cell-based", "settings": "dose 4-8 µM"}, "[12]": {"test_system": "HepG2", "test": "Induction of apoptosis in human HepG2 cells assessed as cell shrinkage at 4 to 8 uM by fluorescent microscopic analysis", "assay_type": "functional, cell-based", "settings": "dose 4-8 µM"}, "[13]": {"test_system": "HepG2", "test": "Induction of apoptosis in human HepG2 cells assessed as membrane blebbing at 4 to 8 uM by fluorescent microscopic analysis", "assay_type": "functional, cell-based", "settings": "dose 4-8 µM"}, "[14]": {"test_system": "HepG2", "test": "Induction of apoptosis in human HepG2 cells assessed as formation of apoptotic bodies at 4 to 8 uM by fluorescent microscopic analysis", "assay_type": "functional, cell-based", "settings": "dose 4-8 µM"}, "[15]": {"test_system": "HepG2", "test": "Induction of apoptosis in human HepG2 cells assessed as live cells at 4 uM measured after 24 hrs by annexinV-FITC/propidium iodide staining based flow cytometry (reference value: 91.7 %)", "assay_type": "functional"}, "[16]": {"test_system": "HepG2", "test": "Induction of apoptosis in human HepG2 cells assessed as early apoptotic cells at 4 uM measured after 24 hrs by annexinV-FITC/propidium iodide staining based flow cytometry (reference value: 2.03 %)", "assay_type": "functional"}, "[17]": {"test_system": "HepG2", "test": "Induction of apoptosis in human HepG2 cells assessed as late apoptotic cells at 4 uM measured after 24 hrs by annexinV-FITC/propidium iodide staining based flow cytometry (reference value: 5.45 %)", "assay_type": "functional"}, "[18]": {"test_system": "HepG2", "test": "Induction of apoptosis in human HepG2 cells assessed as necrotic cells at 4 uM measured after 24 hrs by annexinV-FITC/propidium iodide staining based flow cytometry (reference value: 0.77 %)", "assay_type": "functional"}, "[19]": {"test_system": "HepG2", "test": "Induction of apoptosis in human HepG2 cells assessed as live cells at 8 uM measured after 24 hrs by annexinV-FITC/propidium iodide staining based flow cytometry (reference value: 91.7 %)", "assay_type": "functional"}, "[20]": {"test_system": "HepG2", "test": "Induction of apoptosis in human HepG2 cells assessed as early apoptotic cells at 8 uM measured after 24 hrs by annexinV-FITC/propidium iodide staining based flow cytometry (reference value: 2.03 %)", "assay_type": "functional"}, "[21]": {"test_system": "HepG2", "test": "Induction of apoptosis in human HepG2 cells assessed as late apoptotic cells at 8 uM measured after 24 hrs by annexinV-FITC/propidium iodide staining based flow cytometry (reference value: 5.45 %)", "assay_type": "functional"}, "[22]": {"test_system": "HepG2", "test": "Induction of apoptosis in human HepG2 cells assessed as necrotic cells at 8 uM measured after 24 hrs by annexinV-FITC/propidium iodide staining based flow cytometry (reference value: 0.77 %)", "assay_type": "functional"}}, "note": "Activity calls are given as the source filed them. The calls are words filed in the database; no cut-off is given here.", "data": [{"compound": "C[C@@H]1CC[C@@]2(OC1)O[C@H]1C[C@H]3[C@@H]4CC=C5C[C@@H](OC(=O)CCC(=O)N6CCNCC6)CC[C@]5(C)[C@H]4CC[C@]3(C)[C@H]1[C@@H]2C", "values": [{"measurement": "IC50", "setting": "[1]", "value": 2400, "unit": "nM"}, {"measurement": "IC50", "setting": "[2]", "value": 2800, "unit": "nM"}, {"measurement": "IC50", "setting": "[3]", "value": 1900, "unit": "nM"}, {"measurement": "IC50", "setting": "[4]", "value": 18600, "unit": "nM"}, {"measurement": "Activity", "setting": "[5]", "value": 57.4, "unit": "%"}, {"measurement": "Activity", "setting": "[6]", "value": 21.5, "unit": "%"}, {"measurement": "Activity", "setting": "[7]", "value": 18.6, "unit": "%"}, {"measurement": "Activity", "setting": "[8]", "value": 64.2, "unit": "%"}, {"measurement": "Activity", "setting": "[9]", "value": 17.5, "unit": "%"}, {"measurement": "Activity", "setting": "[10]", "value": 17.3, "unit": "%"}, {"measurement": "Activity", "setting": "[11]", "value": "Active"}, {"measurement": "Activity", "setting": "[12]", "value": "Active"}, {"measurement": "Activity", "setting": "[13]", "value": "Active"}, {"measurement": "Activity", "setting": "[14]", "value": "Active"}, {"measurement": "Activity", "setting": "[15]", "value": 88.7, "unit": "%"}, {"measurement": "Activity", "setting": "[16]", "value": 6.08, "unit": "%"}, {"measurement": "Activity", "setting": "[17]", "value": 5.12, "unit": "%"}, {"measurement": "Activity", "setting": "[18]", "value": 0.093, "unit": "%"}, {"measurement": "Activity", "setting": "[19]", "value": 78.7, "unit": "%"}, {"measurement": "Activity", "setting": "[20]", "value": 13.2, "unit": "%"}, {"measurement": "Activity", "setting": "[21]", "value": 7.85, "unit": "%"}, {"measurement": "Activity", "setting": "[22]", "value": 0.18, "unit": "%"}]}]}
